We go through 19 molecules from PubChem BioAssay (NCI).

Values joined by “and” are separate entries in the source; they are usually repeats but may differ in a detail not shown here. Identical values can stand only once.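 Interpolation was linear, between the two tested concentrations surrounding the appropriate level; five concentrations were tested over 48 hours in 96-well plates. The concentration for 50% growth inhibition is given as GI50. TGI marks complete inhibition of growth.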 Active and inactive are the calls of the source. No stated cut-off is given here; in the data, active means GI50 below about 0.43 µM; inactive means the rest. A value given as a limit tells only on which side of the number the result lay.

Test systems include DMS 114 small cell lung; RXF-631 renal; SN12K1 renal; P388/ADR leukemia; P388 leukemia.
What all share (test): NCI tumour cell line growth inhibition, 48 h

With `CC(=O)[CH-]C(C)=O.CC(=O)[CH-]C(C)=O.CC(=O)[CH-]C(C)=O.[Ga+3]`, in the assay with DMS 114 small cell lung, the GI50 was over 100 µM and the TGI is over 100 µM.

With `O=[N+]([O-])/C=C/c1ccc(Cl)cc1Cl`, the TGI in the assay with DMS 114 small cell lung was 35.8 µM.

The molecule `CC(=O)CC(=O)CCC(=O)Nc1cccc(C(F)(F)F)c1` gave a TGI in the assay on DMS 114 small cell lung of over 100 µM.

As to `O=C(CO)C1CC2C=CC1C2` (stereo not drawn), the TGI in the assay with DMS 114 small cell lung and in the assay with RXF-631 renal was over 100 µM each time.

In the case of `C[P+]1(c2ccccc2)CCCCC1`, the TGI with DMS 114 small cell lung and in the assay with RXF-631 renal was over 100 µM in each case.

Consider `C=C1C=CC2(Br)OC3CC(C)(Cl)C(Br)CC13C2(C)C` (stereo not drawn), for which the TGI was 32.4 µM in the assay with DMS 114 small cell lung and over 100 µM with RXF-631 renal.

Consider `O=C(c1c(O)cc(O)cc1O)C1Cc2ccccc21` (stereo not drawn), for which the TGI with DMS 114 small cell lung is over 100 µM.

In the case of `CCOC(=O)C(CCCNC(=O)OC(C)(C)C)N(Cc1ccc(OC)cc1OC)C(=O)CC(=O)CP(=O)(OCC)OCC` (stereo not drawn), the TGI with DMS 114 small cell lung and in the assay with RXF-631 renal was over 100 µM in each case.

With `c1ccc(CN2COc3c(ccc4c5c(ccc34)CN(Cc3ccccc3)CO5)C2)cc1`, the TGI in the assay on DMS 114 small cell lung and in the assay with RXF-631 renal was over 100 µM throughout.

In the case of `COc1c(OC(C)C)cc2cc(O)c(C(=O)NC3Cc4ccc(c(Cl)n4)O[C@@H]4C=C5C#C/C(=C\C#CC6OC56C4OC4CC(C)(O)C(O)C(C)O4)C(OC4CC(O)C(N(C)C)C(C)O4)COC3=O)cc2c1OC` (stereo partly drawn), in the assay on DMS 114 small cell lung, the GI50 is 0.926 µg/mL and the TGI is 10.4 µg/mL. For the same molecule, the result in the assay with RXF-631 renal was inactive.

As for `O=C(Cc1ccccc1)C(c1ccccc1)S(=O)(=O)c1ccccc1` (stereo not drawn), the TGI with DMS 114 small cell lung and in the assay with RXF-631 renal was over 100 µM each time.

`C/C(=N\NC(=S)N1CCN(c2ccccn2)CC1)c1ncccn1`: the TGI with SN12K1 renal was 1.61 µM; in the assay on DMS 114 small cell lung it was 0.271 µM and 1.08 µM; with P388/ADR leukemia, 0.0154 µM; in the assay with P388 leukemia it was 0.0153 µM.

For the molecule `CC(C)OC(=O)C1Cc2c([nH]c3ccccc23)C(c2ccccc2)N1` (stereo not drawn), the TGI in the assay on DMS 114 small cell lung is over 100 µM.

Molecule `C/C(=N\NC(=O)C(N)=O)c1c(O)cc(C)oc1=O` displayed a TGI in the assay with RXF-631 renal of over 100 µM.

With `O=c1[nH]c2ccccc2n1C1CCN(CCCC(c2ccc(F)cc2)c2ccc(F)cc2)CC1`, in the assay on DMS 114 small cell lung, the TGI worked out at 6.52 µM.

Consider `CC(N)CC(=O)O` (stereo not drawn), for which the TGI in the assay on DMS 114 small cell lung is over 5000 µM.

Take `COc1c(CC=C(C)C)c(O)c(C(CC(C)C)c2c(O)c(CC=C(C)C)c(O)c(C(C)=O)c2O)c(O)c1C(C)=O` (stereo not drawn): the TGI in the assay with DMS 114 small cell lung stood at 0.575 µM; with RXF-631 renal it was 6.94 µM.

For the molecule `CC1CCC2(C)C(CC=C(C=O)C2(O)C=O)C12CO2` (stereo not drawn), the results for the TGI with DMS 114 small cell lung and in the assay with RXF-631 renal were 4.84 µM and 5.77 µM, respectively.

`CC(C)(C)c1cc(C(=O)O)c2c(c1)C(=O)OC2(c1ccccc1)c1ccccc1C(=O)O` (stereo not drawn): in the assay with DMS 114 small cell lung, the TGI was over 100 µM.
